From patent publication US11319315B2, “Cyclohexyl acid triazole azoles as LPA antagonists” (BRISTOL-MYERS SQUIBB COMPANY, priority 2017, dated 2022)

Each compound was assayed against T1, human LPA1 (Homo sapiens, UniProt Q92633) (assay: LPA1 functional antagonist assay (LPA-induced calcium flux in CHO cells overexpressing human LPA1)). Details: inhibition of calcium flux induced by 10 nM LPA, CHO cells overexpressing human LPA1; read-out: hLPA1 IC50.
T1 construct: expressed in transfected cells; host or cells: Chinese hamster ovary (CHO) cells
Format: cell-based
Summary of the method: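 Calcium flux was triggered by 10 nM LPA after 20 min room-temperature compound pre-incubation (final 0.08 nM to 5 μM, 0.5% DMSO) in human LPA1-overexpressing CHO cells carrying calcium dye. Buffer: HBSS with Ca/Mg, 20 mM HEPES, 0.1% fatty-acid-free BSA; IC50s from 4-parameter logistic fits.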

T1 sequence (Q92633 whole entry): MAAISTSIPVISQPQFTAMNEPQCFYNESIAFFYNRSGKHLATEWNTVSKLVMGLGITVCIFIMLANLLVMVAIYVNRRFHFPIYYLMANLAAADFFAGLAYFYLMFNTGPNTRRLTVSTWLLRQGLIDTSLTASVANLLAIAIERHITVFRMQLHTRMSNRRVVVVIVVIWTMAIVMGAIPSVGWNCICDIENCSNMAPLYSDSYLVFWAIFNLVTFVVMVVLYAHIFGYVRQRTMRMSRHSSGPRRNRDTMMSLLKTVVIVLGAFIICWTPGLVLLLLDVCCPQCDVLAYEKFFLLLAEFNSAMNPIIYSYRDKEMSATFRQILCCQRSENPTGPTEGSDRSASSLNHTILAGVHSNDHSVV

Compared with `Cc1nc(-c2nnn(C)c2CNc2nnn(-c3ccc(Cl)cc3)n2)ccc1O[C@H]1CCC[C@H](C(=O)O)C1` [Example 384, (1S,3S)-3-((6-(5-(((2-(4-chloro-phenyl)-2H-tetrazol-5-yl)amino)methyl)-1-methyl-1H-1,2,3-triazol-4-yl)-2-methylpyridin-3-yl)oxy)cyclohexane-1-carboxylic acid], `Cc1nc(-c2nnn(C)c2Cc2nnn(CCC3CC3)n2)ccc1O[C@H]1CCC[C@H](C(=O)O)C1` [Example 400, (1S,3S)-3-{[6-(5-{[2-(2-cyclo-propylethyl)-2H-1,2,3,4-tetrazol-5-yl]methyl}-1-methyl-1H-1,2,3-triazol-4-yl)-2-methylpyridin-3-yl]oxy}cyclohexane-1-carboxylic acid] is 3.1-fold higher in IC50: 41 nM for the first, 129 nM for the second.

Same assay, conditions: read-out: hLPA1 IC50

Going from `Cc1ccc(-n2nnc(NCc3c(-c4ccc(O[C@H]5CCC[C@H](C(=O)O)C5)c(C)n4)nnn3C)n2)cc1` [Example 385, (1S,3S)-3-((2-methyl-6-(1-methyl-5-(((2-(p-tolyl)-2H-tetrazol-5-yl)amino)methyl)-1H-1,2,3-triazol-4-yl)pyridin-3-yl)oxy)cyclohexane-1-carboxylic acid] to `Cc1nc(-c2nnn(C)c2CNc2nnn(-c3ccccc3)n2)ccc1O[C@H]1CCC[C@H](C(=O)O)C1` [Example 389, (1S,3S)-3-((2-methyl-6-(1-methyl-5-(((2-phenyl-2H-tetrazol-5-yl)amino)methyl)-1H-1,2,3-triazol-4-yl)pyridin-3-yl)oxy)cyclohexane-1-carboxylic acid], the IC50 falls from 158 nM to 84 nM (1.9-fold). The second is the more potent here.

Going from `Cc1nc(-c2nnn(C)c2CNc2nnn(CC3CC3)n2)ccc1O[C@H]1CCC[C@H](C(=O)O)C1` [Example 386, (1S,3S)-3-((6-(5-(((2-(cyclopropyl-methyl)-2H-tetrazol-5-yl)amino)methyl)-1-methyl-1H-1,2,3-triazol-4-yl)-2-methylpyridin-3-yl)oxy)cyclohexane-1-carboxylic acid] to `CCCn1nnc(NCc2c(-c3ccc(O[C@H]4CCC[C@H](C(=O)O)C4)c(C)n3)nnn2C)n1` [Example 387, (1S,3S)-3-((2-methyl-6-(1-methyl-5-(((2-propyl-2H-tetrazol-5-yl)amino)methyl)-1H-1,2,3-triazol-4-yl)pyridin-3-yl)oxy)cyclohexane-1-carboxylic acid], the IC50 rises from 26 nM to 285 nM (11-fold). The first is the more potent here.

Compared with `Cc1nc(-c2nnn(C)c2CNc2nnn(CC(C)C)n2)ccc1O[C@H]1CCC[C@H](C(=O)O)C1` [Example 388, (1S,3S)-3-((6-(5-(((2-isobutyl-2H-tetrazol-5-yl)amino)methyl)-1-methyl-1H-1,2,3-triazol-4-yl)-2-methylpyridin-3-yl)oxy)cyclo-hexane-1-carboxylic acid], `C=CCn1nnc(NCc2c(-c3ccc(O[C@H]4CCC[C@H](C(=O)O)C4)c(C)n3)nnn2C)n1` [Example 392, (1S,3S)-3-((6-(5-(((2-allyl-2H-tetrazol-5-yl)amino)methyl)-1-methyl-1H-1,2,3-triazol-4-yl)-2-methylpyridin-3-yl)oxy)cyclo-hexane-1-carboxylic acid] is 3.9-fold higher in IC50: 43 nM for the first, 167 nM for the second.

Going from `Cc1nc(-c2nnn(C)c2CNc2nnnn2Cc2ccccc2)ccc1O[C@H]1CCC[C@H](C(=O)O)C1` [Example 390, (1S,3S)-3-((6-(5-(((1-benzyl-1H-tetrazol-5-yl)amino)methyl)-1-methyl-1H-1,2,3-triazol-4-yl)-2-methylpyridin-3-yl)oxy)cyclo-hexane-1-carboxylic acid] to `Cc1nc(-c2nnn(C)c2CNc2nnn(Cc3ccccc3)n2)ccc1O[C@H]1CCC[C@H](C(=O)O)C1` [Example 391, (1S,3S)-3-((6-(5-(((2-benzyl-2H-tetrazol-5-yl)amino)methyl)-1-methyl-1H-1,2,3-triazol-4-yl)-2-methylpyridin-3-yl)oxy)cyclo-hexane-1-carboxylic acid], the IC50 falls from 375 nM to 23 nM (16-fold). The second is the more potent here.

`CCc1nc(-c2nnn(C)c2CNc2nc(C3CCCC3)ns2)ccc1O[C@H]1CCC[C@H](C(=O)O)C1` [Example 393, (1S,3S)-3-((6-(5-(((3-cyclopentyl-1,2,4-thiadiazol-5-yl)amino)methyl)-1-methyl-1H-1,2,3-triazol-4-yl)-2-ethylpyridin-3-yl)oxy)cyclohexane-1-carboxylic acid] and `CCc1nc(-c2nnn(C)c2CNc2nc(C3CCC3)ns2)ccc1O[C@H]1CCC[C@H](C(=O)O)C1` [Example 396, (1S,3S)-3-((6-(5-(((3-cyclobutyl-1,2,4-thiadiazol-5-yl)amino)methyl)-1-methyl-1H-1,2,3-triazol-4-yl)-2-ethylpyridin-3-yl)oxy)cyclohexane-1-carboxylic acid] are within 1.5-fold of each other in IC50: 35 nM for the first, 33 nM for the second.

`CCc1nc(-c2nnn(C)c2CNc2nc(C(C)(C)C)ns2)ccc1O[C@H]1CCC[C@H](C(=O)O)C1` [Example 394, (1S,3S)-3-((6-(5-(((3-(tert-butyl)-1,2,4-thiadiazol-5-yl)amino)methyl)-1-methyl-1H-1,2,3-triazol-4-yl)-2-ethylpyridin-3-yl)oxy)cyclohexane-1-carboxylic acid] and `CCc1nc(-c2nnn(C)c2CNc2nc(C(C)C)ns2)ccc1O[C@H]1CCC[C@H](C(=O)O)C1` [Example 398, (1S,3S)-3-((2-ethyl-6-(5-(((3-isopropyl-1,2,4-thiadiazol-5-yl)amino)methyl)-1-methyl-1H-1,2,3-triazol-4-yl)pyridin-3-yl)oxy)cyclohexane-1-carboxylic acid] are within 1.5-fold of each other in IC50: 66 nM for the first, 59 nM for the second.

Compared with `CCc1nc(-c2nnn(C)c2CNc2nc(CC(C)C)ns2)ccc1O[C@H]1CCC[C@H](C(=O)O)C1` [Example 395, (1S,3S)-3-((2-ethyl-6-(5-(((3-isobutyl-1,2,4-thiadiazol-5-yl)amino)methyl)-1-methyl-1H-1,2,3-triazol-4-yl)pyridin-3-yl)oxy)cyclohexane-1-carboxylic acid], `CCCc1nsc(NCc2c(-c3ccc(O[C@H]4CCC[C@H](C(=O)O)C4)c(CC)n3)nnn2C)n1` [Example 399, (1S,3S)-3-((2-ethyl-6-(1-methyl-5-(((3-propyl-1,2,4-thiadiazol-5-yl)amino)methyl)-1H-1,2,3-triazol-4-yl)pyridin-3-yl)oxy)cyclohexane-1-carboxylic acid] is 3.3-fold higher in IC50: 22 nM for the first, 73 nM for the second. The first is the more potent here.

First: CCc1nc(-c2nnn(C)c2CNc2nc(C3CC3)ns2)ccc1O[C@H]1CCC[C@H](C(=O)O)C1 [Example 397, (1S,3S)-3-((6-(5-(((3-cyclopropyl-1,2,4-thiadiazol-5-yl)amino)methyl)-1-methyl-1H-1,2,3-triazol-4-yl)-2-ethylpyridin-3-yl)oxy)cyclohexane-1-carboxylic acid]
Second: Cc1nc(-c2nnn(C)c2Cc2nnn(CCC3CC3)n2)ccc1O[C@H]1CCC[C@H](C(=O)O)C1 [Example 400, (1S,3S)-3-{[6-(5-{[2-(2-cyclo-propylethyl)-2H-1,2,3,4-tetrazol-5-yl]methyl}-1-methyl-1H-1,2,3-triazol-4-yl)-2-methylpyridin-3-yl]oxy}cyclohexane-1-carboxylic acid]
The IC50 of the first is 7.3-fold higher: 931 nM for the first, 128 nM for the second.

First: COCCCn1nnc(Cc2c(-c3ccc(O[C@H]4CCC[C@H](C(=O)O)C4)c(C)n3)nnn2C)n1 [Example 401, (1S,3S)-3-{[6-(5-{[2-(3-methoxy-propyl)-2H-1,2,3,4-tetrazol-5-yl]methyl}-1-methyl-1H-1,2,3-triazol-4-yl)-2-methylpyridin-3-yl]oxy}cyclohexane-1-carboxylic acid]
Second: COCCCOc1nnn(Cc2c(-c3ccc(O[C@H]4CCC[C@H](C(=O)O)C4)c(C)n3)nnn2C)n1 [Example 404, (1S,3S)-3-{[6-(5-{[5-(3-methoxy-propoxy)-2H-1,2,3,4-tetrazol-2-yl]methyl}-1-methyl-1H-1,2,3-triazol-4-yl)-2-methylpyridin-3-yl]oxy}cyclohexane-1-carboxylic acid]
The IC50 of the first is 3.1-fold higher: 1120 nM for the first, 365 nM for the second. The second is the more potent here.

First: Cc1nc(-c2nnn(C)c2Cc2nnn(Cc3ccccc3)n2)ccc1O[C@H]1CCC[C@H](C(=O)O)C1 [Example 402, (1S,3S)-3-[(6-{5-[(2-benzyl-2H-1,2,3,4-tetrazol-5-yl)methyl]-1-methyl-1H-1,2,3-triazol-4-yl}-2-methylpyridin-3-yl)oxy]cyclo-hexane-1-carboxylic acid]
Second: COCCOc1nnn(Cc2c(-c3ccc(O[C@H]4CCC[C@H](C(=O)O)C4)c(C)n3)nnn2C)n1 [Example 407, (1S,3S)-3-{[6-(5-{[5-(2-methoxy-ethoxy)-2H-1,2,3,4-tetrazol-2-yl]methyl}-1-methyl-1H-1,2,3-triazol-4-yl)-2-methylpyridin-3-yl]oxy}cyclohexane-1-carboxylic acid]
The IC50 of the first is 3-fold lower: 47 nM for the first, 142 nM for the second.

Compared with `COC[C@@H](C)Oc1nnn(Cc2c(-c3ccc(O[C@H]4CCC[C@H](C(=O)O)C4)c(C)n3)nnn2C)n1` [Example 403, (1S,3S)-3-[(6-{5-[(5-{[(2R)-1-methoxypropan-2-yl]oxyl}-2H-1,2,3,4-tetrazol-2-yl)methyl]-1-methyl-1H-1,2,3-triazol-4-yl}-2-methylpyridin-3-yl)oxy]cyclo-hexane-1-carboxylic acid], `COCCCCCOc1nnn(Cc2c(-c3ccc(O[C@H]4CCC[C@H](C(=O)O)C4)c(C)n3)nnn2C)n1` [Example 406, (1S,3S)-3-({6-[5-({5-[(5-methoxy-pentyl)oxy]-2H-1,2,3,4-tetrazol-2-yl}methyl)-1-methyl-1H-1,2,3-triazol-4-yl]-2-methylpyridin-3-yl}oxy)cyclohexane-1-carboxylic acid] is 2.7-fold higher in IC50: 250 nM for the first, 681 nM for the second. The first is the more potent here.

First: Cc1nc(-c2nnn(C)c2Cn2nnc(OCC3CC4CCC3C4)n2)ccc1O[C@H]1CCC[C@H](C(=O)O)C1 (stereo partly drawn) [Example 405, (1S,3S)-3-{[6-(5-{[5-({bicyclo[2.2.1]heptan-2-yl}methoxy)-2H-1,2,3,4-tetrazol-2-yl]methyl}-1-methyl-1H-1,2,3-triazol-4-yl)-2-methylpyridin-3-yl]oxy}cyclohexane-1-carboxylic acid]
Second: Cc1nc(-c2nnn(C)c2Cn2nnc(N(C)CC3CC3)n2)ccc1O[C@H]1CCC[C@H](C(=O)O)C1 [Example 408, (1S,3S)-3-({6-(5-({5-[(cyclopropylmethyl)(methyl)amino]-2H-1,2,3,4-tetrazol-2-yl}methyl)-1-methyl-1H-1,2,3-triazol-4-yl]-2-methylpyridin-3-yl}oxy)cyclohexane-1-carboxylic acid]
The IC50 of the first is 7.2-fold lower: 47 nM for the first, 339 nM for the second. The first is the more potent here.
